Reference: patent publication US20240228973A9, “NON-ALCOHOLIC FATTY LIVER ARTIFICIAL TISSUE MODEL” (CELLARTGEN INC., priority 2021, published 2024)

How the values were obtained:
normal liver organoids = experiment: Viability of normal liver organoids treated with the drug (cytotoxicity); format: cell-based, human
Description: Also, when the viability of the normal liver organoids treated with the drug was analyzed to evaluate the cytotoxicity depending on the concentration of the drug, it was confirmed that the viability was 80% or more at 1 μM, 70% at 10 μM, and about 60% at 100 μM (FIG. 15B). That is, it was confirmed that liver toxicity increased as the treatment concentration of OCA increased.
Also, when the viability of the normal liver organoids treated with the drug was analyzed to evaluate the cytotoxicity depending on the concentration of the drug, it was confirmed that the viability was 70% or more at 1 μM to 10 μM and about 50% at 100 μM (FIG. 16B).
Also, when the viability of the normal liver organoids treated with the drug was analyzed to evaluate the cytotoxicity depending on the concentration of the drug, it was confirmed that the viability was not affected at a concentration of up to 1 μM, and it was 80% or more at 10 μM and about 60% at 100 μM (FIG. 17B).

[1] = test system: human tissue-derived non-alcoholic steatohepatitis (NASH) liver organoids; experiment: Drug efficacy evaluation in human tissue-derived NASH liver organoids co-cultured with EC, KC and HSC in LEM-Chip; format: cell-based
Text: (§1) Steatohepatitis (NASH) was induced in liver organoids in which a liver tissue microenvironment [vascular endothelial cells (E)+Kupffer cells (K)+hepatic stellate cells (S)] was constructed under culture conditions in which the decellularized liver tissue-derived LEM scaffold and the multiwell microfluidic device were combined, followed by treatment with obeticholic acid (OCA) at different concentrations. OCA (Obeticholic acid) is a semi-synthetic bile acid analogue that has conventionally been used to treat cholangitis and is a drug candidate whose efficacy has recently been verified in non-alcoholic steatohepatitis clinical trials. The NASH group was treated with 800 μM fatty acid for 3 days to induce a disease, and the NASH+OCA group was treated with 800 μM fatty acid and the corresponding drug for 3 days at different concentrations.
as §1, with “ezetimibe (Eze)” for “obeticholic acid (OCA)”, “Eze (Ezetimibe)” for “OCA (Obeticholic acid)”, “cholesterol absorption inhibitor and is a drug candidate” for “semi-synthetic bile acid analogue”, “hyperglycemic cholesterol” for “cholangitis”, “lipid abnormalities.” for “is a drug candidate whose efficacy has recently been verified in non-alcoholic steatohepatitis clinical trials.”, “NASH+Eze” for “NASH+OCA”
as §1, with “dapagliflozin (DAPA)” for “obeticholic acid (OCA)”, “DAPA (Dapagliflozin)” for “OCA (Obeticholic acid)”, “sodium-glucose transporter inhibitor and is a drug candidate” for “semi-synthetic bile acid analogue”, “diabetes.” for “cholangitis and is a drug candidate whose efficacy has recently been verified in non-alcoholic steatohepatitis clinical trials.”, “NASH+DAPA” for “NASH+OCA”

[2] = 800 μM fatty acid + drug for 3 days at different concentrations
[3] = drug concentration of 10 μM or more

Compound	viability of the normal liver organoids (normal liver organoids; 10 μM drug)	viability of the normal liver organoids (normal liver organoids; 100 μM drug)	viability of the normal liver organoids (normal liver organoids; concentration of up to 1 μM)	amount of fat accumulation [1, 2]	morphology and structure of the organoid [1, 2]	expression of the fibrosis marker, quantitative PCR [1, 3]	expression of the inflammation marker, quantitative PCR [1, 3]	expression of fibrosis-related marker (SMA), quantitative PCR ([1]; vs NASH group, 3 days)	expression of inflammation-related marker (TNFα), quantitative PCR ([1]; vs NASH group, 3 days)	viability of the normal liver organoids (normal liver organoids; 1 μM to 10 μM drug)	viability of the normal liver organoids (normal liver organoids; 1 μM drug)	liver toxicity (normal liver organoids; as the treatment concentration increased)
CCOc1ccc(Cc2cc([C@@H]3O[C@H](CO)[C@@H](O)[C@H](O)[C@H]3O)ccc2Cl)cc1 [DAPA, dapagliflozin]	≥ 80%	about 60%	not affected	–	–	–	–	–	–	–	–	–
O=C1[C@H](CC[C@H](O)c2ccc(F)cc2)[C@@H](c2ccc(O)cc2)N1c1ccc(F)cc1 [Eze, ezetimibe]	–	about 50%	–	reduced as the concentration increased	recovered	decreased to a level similar to that in the normal organoid	decreased to a level similar to that in the normal organoid	decreased	decreased	≥ 70%	–	–
CC[C@H]1[C@@H](O)[C@@H]2[C@H](CC[C@]3(C)[C@@H]([C@H](C)CCC(=O)O)CC[C@@H]23)[C@@]2(C)CC[C@@H](O)C[C@@H]12 [OCA, obeticholic acid]	70%	about 60%	–	–	–	–	–	–	–	–	≥ 80%	increased
